The values below come from PMC11110727, “Exploiting thiol-functionalized benzosiloxaboroles for achieving diverse substitution patterns – synthesis, characterization and biological evaluation of promising antibacterial agents” (RSC Medicinal Chemistry, 2024).

The structures appear in SMILES notation. ≈ marks a conversion by molar mass, not a printed value. Where two headings read alike, the source gives them in different places. Where only a bound is given, the exact number is not on record here.

The subject of data set [1] is Gram-negative rods. Put plainly: Antibacterial activity against Gram-negative rods with or without PAβN (text summaries). Format: cell-based. The settings on record: for efflux assay result (MIC with PAβN): Gram-negative rods; for reduction of MIC in the presence of PAβN: Enterobacterales. The method, then:
Direct antimicrobial activity was determined against the following standard strains: (1) Gram-positive cocci: methicillin-sensitive Staphylococcus aureus ATCC 6538P (MSSA), methicillin-resistant S. aureus subsp. aureus ATCC 43300 (MRSA), S. epidermidis ATCC 12228, Enterococcus faecium ATCC 6057, E. faecalis ATCC 29212, Bacillus subtilis ATCC 6633; (2) Gram-negative bacteria from Enterobacteriales order: Klebsiella pneumoniae ATCC 13883, Escherichia coli ATCC 25922, Enterobacter cloacae DSM 6234, Proteus mirabilis ATCC 12453, Serratia marcescens ATCC 13880; (3) Gram-negative non-fermentative rods: Acinetobacter baumannii ATCC 19606, Pseudomonas aeruginosa ATCC 27853, Stenotrophomonas maltophilia ATCC 12714, S. maltophilia ATCC 13637, Burkholderia cepacia ATCC 25416, Bordetella bronchiseptica ATCC 4617; (4) yeasts: Candida albicans ATCC 90028, C. krusei ATCC 6258, C. parapsilosis ATCC 22019, C. tropicalis (Castellani) Berkhout ATCC 750, C. tropicalis IBA 171, C. guilliermondii IBA 155, and Saccharomyces cerevisiae ATCC 9763. Moreover, 5 clinical strains of methicillin-resistant S. aureus were also included: NMI 664 K, NMI 1576 K, NMI 1712 K, NMI 1991 K, and NMI 2541 K. All strains were stored at −80 °C. Prior to testing, each bacterial strain was subcultured twice on tryptic soy agar TSA (bioMerieux) medium and yeast strains on Sabouraud dextrose agar (bioMerieux) for 24–48 h at 30 °C to ensure viability. The antimicrobial activity was evaluated as previously described[26] by the disc-diffusion method and the MIC determination assays according to the EUCAST (ref. [71] and [72]) and CLSI (ref. [53] and [73]) recommendations. Assessment of bactericidal (MBC) and fungicidal (MFC) activities was performed according to the CLSI recommendations.[54,74] […] The new benzosiloxaboroles were dissolved in DMSO (Sigma).
Considering that the MDR efflux pumps often contribute to Gram-negative rod resistance, the MIC values of studied agents, with or without the pump inhibitor, PAβN (20 μg mL^−1) (Sigma), were determined.[75] The MIC was determined using Mueller–Hinton II broth medium (MHB) (Becton Dickinson) by the broth microdilution method, according to the CLSI guideliness.[53] To minimize the influence of PAβN on the destabilization of bacterial cell covers, the tests were conducted in the presence of 1 mM MgSO4 (Sigma).[76] At least a 4-fold reduction in the MIC value after the addition of PAβN was considered significant.[56,77]

Data set [2] can be described thus: physchem. As for the experimental part:
0.1 M NaOH in H2O/MeOH (1 : 1 v/v).
The acidity constants of benzosiloxaboroles 1e, 2e, 6, 20 and 22–24 were determined by standard pH titration with 0.05 M aq. NaOH. The measurements were performed using a thermostated (25.0 °C) glass vessel equipped with a magnetic stirrer and a 10 mL burette. Prior to the measurement, the pH glass electrode was calibrated using borax and phosphate buffers. A solution of the analyzed compound (ca. 20–40 mg) in a mixture of MeOH/H2O (v/v 1 : 1, 30 mL) was titrated until the pH of the solution exceeded the value of 12.0.

Data set [3] relates to S. aureus NMI 1991 K MRSA. Put plainly: Antibacterial activity against clinical MRSA: MIC/MBC. The conditions noted are these: Staphylococcus aureus, NMI 1991 K MRSA; for MIC: read-out: MIC. The format is cell-based. As for the experimental part:
(§1) Direct antimicrobial activity was determined against the following standard strains: (1) Gram-positive cocci: methicillin-sensitive Staphylococcus aureus ATCC 6538P (MSSA), methicillin-resistant S. aureus subsp. aureus ATCC 43300 (MRSA), S. epidermidis ATCC 12228, Enterococcus faecium ATCC 6057, E. faecalis ATCC 29212, Bacillus subtilis ATCC 6633; (2) Gram-negative bacteria from Enterobacteriales order: Klebsiella pneumoniae ATCC 13883, Escherichia coli ATCC 25922, Enterobacter cloacae DSM 6234, Proteus mirabilis ATCC 12453, Serratia marcescens ATCC 13880; (3) Gram-negative non-fermentative rods: Acinetobacter baumannii ATCC 19606, Pseudomonas aeruginosa ATCC 27853, Stenotrophomonas maltophilia ATCC 12714, S. maltophilia ATCC 13637, Burkholderia cepacia ATCC 25416, Bordetella bronchiseptica ATCC 4617; (4) yeasts: Candida albicans ATCC 90028, C. krusei ATCC 6258, C. parapsilosis ATCC 22019, C. tropicalis (Castellani) Berkhout ATCC 750, C. tropicalis IBA 171, C. guilliermondii IBA 155, and Saccharomyces cerevisiae ATCC 9763. Moreover, 5 clinical strains of methicillin-resistant S. aureus were also included: NMI 664 K, NMI 1576 K, NMI 1712 K, NMI 1991 K, and NMI 2541 K. All strains were stored at −80 °C. Prior to testing, each bacterial strain was subcultured twice on tryptic soy agar TSA (bioMerieux) medium and yeast strains on Sabouraud dextrose agar (bioMerieux) for 24–48 h at 30 °C to ensure viability. The antimicrobial activity was evaluated as previously described[26] by the disc-diffusion method and the MIC determination assays according to the EUCAST (ref. [71] and [72]) and CLSI (ref. [53] and [73]) recommendations. Assessment of bactericidal (MBC) and fungicidal (MFC) activities was performed according to the CLSI recommendations.[54,74] The following reference agents were used: fluconazole (in the case of fungi), linezolid (for Gram-positive bacteria), and nitrofurantoin (for Gram-negative rods). The new benzosiloxaboroles were dissolved in DMSO (Sigma).

The subject of data set [4] is S. aureus NMI 664 K MRSA. Described as above. Format: cell-based. The settings on record: Staphylococcus aureus, NMI 664 K MRSA; for MIC: read-out: MIC. As for the experimental part:
as §1

Data set [5] concerns S. aureus NMI 1576 K MRSA. The description is as above. The format is cell-based. The settings on record: Staphylococcus aureus, NMI 1576 K MRSA; for MIC: read-out: MIC. As for the experimental part:
as §1

The test system of data set [6] is S. aureus NMI 1712 K MRSA. The description is as above. The format is cell-based. The settings on record: Staphylococcus aureus, NMI 1712 K MRSA; for MIC: read-out: MIC. As for the experimental part: as §1
The test system of data set [7] is S. aureus NMI 2541 K MRSA. The description is as above. The format is cell-based. The conditions noted are these: Staphylococcus aureus, NMI 2541 K MRSA; for MIC: read-out: MIC. As for the experimental part: as §1
[8] abbreviates: read-out: MBC (first MBC where Eagle effect).
Where [9] appears, read: read-out: second MBC (Eagle effect).

For the compound `COC(=O)CCSc1ccc2c(c1F)[Si](C)(C)OB2O` [Compound 4, Methyl 3-((7-fluoro-3-hydroxy-1,1-dimethyl-1,3-dihydrobenzo[c][1,2,5]oxasilaborol-6-yl)thio)propanoate], the “efflux assay result (MIC with PAβN)” value in data set [1] is listed as “actively extruded from bacterial cells”.
The compound `C[Si]1(C)OB(O)c2cc(F)c(SCCC#N)c(F)c21` [Compound 6, 3-((5,7-Difluoro-3-hydroxy-1,1-dimethyl-1,3-dihydrobenzo[c][1,2,5]oxasilaborol-6-yl)thio)propanenitrile] came in with a pKa in data set [2] of 5.2. Moreover, the MBC is 25 µg/mL (≈ 83.6 µM) in data set [3] (setting [8]); above 400 µg/mL in data set [3] (setting [9]); 25 µg/mL (≈ 83.6 µM) in data set [4] (setting [8]); above 400 µg/mL in data set [4] (setting [9]); 25 µg/mL (≈ 83.6 µM) in data set [5] (setting [8]); above 400 µg/mL in data set [5] (setting [9]). Moreover, the MBC is 12.5 µg/mL (≈ 41.8 µM) in data set [6] (setting [8]), above 400 µg/mL in data set [6] (setting [9]), 25 µg/mL (≈ 83.6 µM) in data set [7] (setting [8]) and above 400 µg/mL in data set [7] (setting [9]). The MIC in data set [3], in data set [4], in data set [5], in data set [6] and in data set [7] was 12.5 µg/mL (≈ 41.8 µM) throughout.
For `C[Si]1(C)OB(O)c2cc(F)c(SC3CC(=O)NC3=O)c(F)c21` (stereo not shown) [Compound 12, 3-((5,7-Difluoro-3-hydroxy-1,1-dimethyl-1,3-dihydrobenzo[c][1,2,5]oxasilaborol-6-yl)thio)pyrrolidine-2,5-dione], the MBC in data set [3] (setting [8]) is 100 µg/mL (≈ 291 µM); in data set [4] (setting [8]), 200 µg/mL (≈ 583 µM); in data set [5] (setting [8]), 100 µg/mL (≈ 291 µM); in data set [6] (setting [8]), 200 µg/mL (≈ 583 µM); in data set [7] (setting [8]), 200 µg/mL (≈ 583 µM). Besides, the MIC is 12.5 µg/mL (≈ 36.4 µM) in data set [3]; 12.5 µg/mL (≈ 36.4 µM) in data set [4]; 6.25 µg/mL (≈ 18.2 µM) in data set [5]; 12.5 µg/mL (≈ 36.4 µM) in data set [6]; 12.5 µg/mL (≈ 36.4 µM) in data set [7]. In data set [1], the “reduction of MIC in the presence of PAβN” value is given as “at least 4 -fold”.
For the compound `C[Si]1(C)OB(O)c2ccc(SC3CC(=O)NC3=O)c(F)c21` (stereo not shown) [Compound 13, 3-((7-Fluoro-3-hydroxy-1,1-dimethyl-1,3-dihydrobenzo[c][1,2,5]oxasilaborol-6-yl)thio)pyrrolidine-2,5-dione], the “reduction of MIC in the presence of PAβN” value in data set [1] is given as “at least 4 -fold”.
For `C[Si]1(C)OB(O)c2ccc(SCCS(=O)(=O)c3ccccc3)c(F)c21` [Compound 21, 7-Fluoro-1,1-dimethyl-6-((2-(phenylsulfonyl)ethyl)thio)benzo[c][1,2,5]oxasilaborol-3(1H)-ol], in data set [1], the “efflux assay result (MIC with PAβN)” value is reported as “actively extruded from bacterial cells”.
In data set [2], `CC(=O)CSc1ccc2c(c1F)[Si](C)(C)OB2O` [Compound 22, 1-((7-Fluoro-3-hydroxy-1,1-dimethyl-1,3-dihydrobenzo[c][1,2,5]oxasilaborol-6-yl)thio)propan-2-one] came in with a pKa of 6.4. Further, the MBC in data set [3] (setting [8]) came out at 200 µg/mL (≈ 704 µM); in data set [4] (setting [8]) it was 200 µg/mL (≈ 704 µM); in data set [5] (setting [8]), 200 µg/mL (≈ 704 µM); in data set [6] (setting [8]), 400 µg/mL (≈ 1410 µM); in data set [7] (setting [8]) it was 200 µg/mL (≈ 704 µM). The MIC is 3.12 µg/mL (≈ 11 µM) in data set [3]; 6.25 µg/mL (≈ 22 µM) in data set [4]; 6.25 µg/mL (≈ 22 µM) in data set [5]; 6.25 µg/mL (≈ 22 µM) in data set [6]; 3.12 µg/mL (≈ 11 µM) in data set [7].
In the case of `C[Si]1(C)OB(O)c2ccc(SCC(=O)c3ccccc3)c(F)c21` [Compound 23, 2-((7-Fluoro-3-hydroxy-1,1-dimethyl-1,3-dihydrobenzo[c][1,2,5]oxasilaborol-6-yl)thio)-1-phenylethan-1-one], the pKa in data set [2] turned out to be 6.3. The MBC in data set [3] (setting [8]) was determined as 3.12 µg/mL (≈ 9.01 µM); in data set [3] (setting [9]), 200 µg/mL (≈ 578 µM); in data set [4] (setting [8]) it was 3.12 µg/mL (≈ 9.01 µM); in data set [4] (setting [9]) it was 200 µg/mL (≈ 578 µM); in data set [5] (setting [8]), 6.25 µg/mL (≈ 18 µM); in data set [5] (setting [9]), 100 µg/mL (≈ 289 µM). For the same compound, the MBC in data set [6] (setting [8]) is 25 µg/mL (≈ 72.2 µM); in data set [6] (setting [9]), 200 µg/mL (≈ 578 µM); in data set [7] (setting [8]) it was 6.25 µg/mL (≈ 18 µM); in data set [7] (setting [9]) it was 200 µg/mL (≈ 578 µM). The MIC was found to be 1.56 µg/mL (≈ 4.51 µM) in data set [3]; 3.12 µg/mL (≈ 9.01 µM) in data set [4]; 3.12 µg/mL (≈ 9.01 µM) in data set [5]; 3.12 µg/mL (≈ 9.01 µM) in data set [6]; 1.56 µg/mL (≈ 4.51 µM) in data set [7].
In the case of `C[Si]1(C)OB(O)c2ccc(SC(=O)c3ccc(C(F)(F)F)cc3)c(F)c21` [Compound 25, S-(7-Fluoro-3-hydroxy-1,1-dimethyl-1,3-dihydrobenzo[c][1,2,5]oxasilaborol-6-yl) 4-(trifluoromethyl)benzothioate], the MBC in data set [3] (setting [8]) came to 50 µg/mL (≈ 125 µM); in data set [4] (setting [8]), 25 µg/mL (≈ 62.5 µM); in data set [5] (setting [8]) it was 50 µg/mL (≈ 125 µM); in data set [6] (setting [8]), 25 µg/mL (≈ 62.5 µM); in data set [7] (setting [8]), 25 µg/mL (≈ 62.5 µM). The MIC was found to be 25 µg/mL (≈ 62.5 µM) in data set [3]; 12.5 µg/mL (≈ 31.2 µM) in data set [4]; 25 µg/mL (≈ 62.5 µM) in data set [5]; 12.5 µg/mL (≈ 31.2 µM) in data set [6]; 12.5 µg/mL (≈ 31.2 µM) in data set [7].

The term pKa denotes the negative logarithm of the acid dissociation constant. For orientation: MBC means the smallest concentration meeting the test's criterion for killing. The term MIC denotes the lowest concentration that inhibits growth of the organism.
